Marks after values point to notes of the source that are not given here. Peptide text beside a SMILES is read from it.
What was measured:
rat scald model = assay: Rat scald model, study effects (Table x7A); format: in vivo; settings: burn + IM3N1 4 mg/kg sc once daily for seven days; n=3
burn wound length = assay: Post-burn wound healing study (x8A); format: in vivo, rats; settings: burn-group treatment as labelled (4 mg/kg), then vehicle weeks 2-6
Experimental: Experiment x8A. Male rats treated with 4 mg/kg nephrilin peptide IM3N1 for 2 weeks in Example 5 were subsequently treated 3× weekly (Mon-Wed-Fri) for 4 weeks with vehicle (n=12) or with 1 mg/kg IM3vlp peptide (n=12) by subcutaneous bolus injection (200 uL volume). Longitudinal wound length between the hairlines was measured at 6 weeks, and this value was corrected for nose-to-ear length and width of each animal. The mean resulting value (in arbitrary units) is shown below.

[1] = NTA-metal-affinity fluorescence assay, FITC-labeled IM3 (x2B a); format: binding; settings: FITC-labeled IM3 1 ug/well
Experimental: (§1) NTA-metal-affinity fluorescence assay was performed using 96-well NTA-metal-coated plates readily available from commercial sources such as Qiagen (Germantown, MD). NTA was charged with ferrous or ferric iron, zinc, copper, calcium, vanadium, ruthenium, cobalt, titanium, manganese or other metals. 400 ng of FITC-labeled immodulator peptide (or biotinylated immodulator peptide complexed to Alexa-488-labeled streptavidin) in PBS buffer was added per plate. After incubation at room temperature for 60 minutes, excess peptide was washed off and peptide was detected by measuring fluorescence (excitation 490 nm, emmission 525 nm) in a fluorometer. • (a) Using FITC-labeled IM3 peptide (1 ug/well) in the fluorescent binding assay: • EDTA-treated control: 2,251±1,186 • Ferrous iron: 170,441±11,264 (p<0.001)* • Copper: 13,644±5566 (p<0.05)* • Calcium: 48,822±11,990 (p<0.01)* • *p values are relative to EDTA-treated control • (b) Competition binding assay to ferrous iron, calcium, copper and zinc-charged NTA-coated plates using FITC-labeled IM3 peptide (0.5 uM) and 8× (4 uM) unlabelled competitor peptides IM3N1, IM3N2 (*all comparisons to PBS control are p<0.01); # fluorescent value of binding to […] was set at 100.

[2] = Alexa488-SA-labelled IM3 binding to metal-charged NTA-coated plate (x2B c)
Experimental: as §1
• (c) Alexa488-SA-labelled immodulator peptide IM3 (400 ng/well) bound to NTA-coated plate charged with the indicated metals: # fluorescent value of binding to ferrous iron was set at 100. *p<0.01 relative to control.
Ferrous iron # (100±2.6*); Control (no metal): 6.4±3.1; Ferric iron: 94.1±6.6*; Calcium: 47.6±3.7*; Vanadium: 53.9±5.5*; Manganese: 54.4±11.2*; Cobalt: 25.4±2.3*; Copper: 58.4±6.4*; Zinc: 71.4±8.3*; Ruthenium: 67.8±8.3*; (d) Alexa488-SA-labelled immodulator peptide IM1, IM2, IM3, IM4, IM5, IM6 (400 ng/well) were bound to NTA-coated plate charged with the indicated metals: # background (no peptide) control set to 1.0;*p<0.05, **p<0.01 vs “no peptide”

NF-kappa-B (NFkB) = assay: THP1-Dual monocyte reporter, NF-kappa-B readout (x4A); format: cell-based
Experimental: Immune modulation functions of immodulator peptides were measured using the monocyte reporter cell line THP1-Dual (Invivogen, San Diego, CA), which provides convenient readouts for STING and NF-kappa-B pathways. Optionally, succinic acid, cytokine and chemokine production were also measured. THP1-Dual cell line was obtained from Invivogen. Cells were grown in a T-75 flask in RPMI Medium containing 20% fetal bovine serum, blasticidin ([…]), zeocin ([…]) and penicillin-streptomycin at 37° C. in a humidified, 5% CO2 incubator. Cells ([…], 8,000 cells/well) were plated in a 96-well plate and incubated overnight at 37 °C in a humidified, 5% CO2 incubator. Next day, […] of compounds were added (quadruplicate wells). After 24 hour incubation with the compound, supernatants were harvested and stored at 4° C. prior to assay.
Each cell supernatant was assayed in quadruplicate. 20 uL of supernatant was used to measure NF-kappa-B (NFkB) and
STING activity using reagents QuantiBlu and QuantiLuc respectively, according to the manufacturer's recommendations (Invivogen, San Diego, CA). Succinic acid was measured by using a kit from Megazyme Inc (Cambridge, MA). Control value of activity was set to 100 in each assay. […] PAM3C=25 ng/ml PAM3CSK4 (TLR1/2 inducer); Poly(I:C)=10 ug/ml (TLR3 inducer); PAM2C=25 ng/ml PAM2CSK4 (TLR2/6 inducer); KIN14=4 uM KIN-1400 (RIG-I inducer); cytB=1 uM cytosporone B (Nur77 inducer); C-178=1 uM STING inhibitor; NFkBi=50 ug/ml NFkB inhibitor peptide; SB2021=10 uM p38MAPK inhibitor; *p<0.05, **p<0.01 vs IM3 control; #p<0.01 vs “no inducer” control; SUCC=succinic acid; nd=not done; Peptide was added to cells at 400 nM.
Peptides were added to cells at 400 nM. […]

[3] = IM3 / FITC-PI(4,5)P2 binding on metal-charged NTA plates (x9C)
Experimental: NTA-coated 96-well plates were charged with either 500 uM zinc chloride or 500 uM ferric chloride and washed. Immodulator peptide IM3 (100 ng/well) and FITC-PI(4,5)P2 (50 ng/well) were added, with or without 2 ug/well cold PPI, and incubated at room temperature for 60 minutes. The plate was washed and counted in a fluorometer.

Molecule: RGVTEDYLRLETLVQKVVSKGFYKKKQCRPSKGRKRGFCW [IM3N1]
- Glycemic Control (GTT AUC) (rat scald model): 69.0 ± 18.1 mg·dL·h
- Kidney Function (eGFR, calculated) (rat scald model): 1.29 ± 0.32
- Lean Body Mass (DEXA) (rat scald model): 328.5 ± 5.1
- Urinary 8-isoprostate (rat scald model): 4.53 ± 1.21 ng/pg cystatin
- corrected longitudinal wound length at 6 weeks (burn wound length): 131.3 ± 18.6 arbitrary units

Molecule: N=C(N)NCCC[C@H](NC(=O)CNC(=O)[C@H](CCCCN)NC(=O)[C@H](CO)NC(=O)[C@@H]1CCCN1C(=O)[C@H](CCCNC(=N)N)NC(=O)[C@H](CS)NC(=O)[C@H](CCC(N)=O)NC(=O)[C@H](CCCCN)NC(=O)[C@H](CCCCN)NC(=O)[C@H](CCCCN)NC(=O)[C@H](Cc1ccc(O)cc1)NC(=O)[C@H](Cc1ccccc1)NC(=O)CNC(=O)[C@H](CCCCN)NC(=O)[C@@H](N)CCCCN)C(=O)N[C@@H](CCCCN)C(=O)N[C@@H](CCCNC(=N)N)C(=O)NCC(=O)N[C@@H](Cc1ccccc1)C(=O)N[C@@H](CS)C(=O)N[C@@H](Cc1c[nH]c2ccccc12)C(=O)O [IM3] (H-KKGFYKKKQCRPSKGRKRGFCW-OH; N-terminus and C-terminus assumed)
- fluorescence ([1]; Calcium): 48,822±11,990
- fluorescence ([1]; Copper): 13,644±5566
- fluorescence ([1]; EDTA-treated control): 2,251±1,186
- fluorescence ([1]; Ferrous iron): 170,441±11,264
- fluorescence ([2]; Calcium, ferrous iron = 100): 47.6±3.7
- fluorescence ([2]; Cobalt, ferrous iron = 100): 25.4±2.3
- fluorescence ([2]; Control (no metal), ferrous iron = 100): 6.4±3.1
- fluorescence ([2]; Copper, ferrous iron = 100): 58.4±6.4
- fluorescence ([2]; Ferric iron, ferrous iron = 100): 94.1±6.6
- fluorescence ([2]; Ferrous iron, set at 100, 400 ng/well): 100±2.6
- fluorescence ([2]; Manganese, ferrous iron = 100): 54.4±11.2
- fluorescence ([2]; Ruthenium, ferrous iron = 100): 67.8±8.3
- fluorescence ([2]; Vanadium, ferrous iron = 100): 53.9±5.5
- fluorescence ([2]; Zinc, ferrous iron = 100): 71.4±8.3
- NFkB (NF-kappa-B (NFkB); peptide 400 nM + KIN1400 (= 100)): 100
- NFkB (NF-kappa-B (NFkB); peptide 400 nM + KIN1400 + C-178 1 uM): 98.1
- NFkB (NF-kappa-B (NFkB); peptide 400 nM + KIN1400 + NFkBi 50 ug/ml): 104.4
- NFkB (NF-kappa-B (NFkB); peptide 400 nM + KIN1400 + SB2021 10 uM): 131.3**
- NFkB (NF-kappa-B (NFkB); peptide 400 nM + KIN1400 + cytB 1 uM): 103.5
- NFkB (NF-kappa-B (NFkB); peptide 400 nM + PAM2C (= 100)): 100
- NFkB (NF-kappa-B (NFkB); peptide 400 nM + PAM2C + C-178 1 uM): 108.0**
- NFkB (NF-kappa-B (NFkB); peptide 400 nM + PAM2C + NFkBi 50 ug/ml): 118.7*
- NFkB (NF-kappa-B (NFkB); peptide 400 nM + PAM2C + SB2021 10 uM): 65.4**
- NFkB (NF-kappa-B (NFkB); peptide 400 nM + PAM2C + cytB 1 uM): 99.8
- NFkB (NF-kappa-B (NFkB); peptide 400 nM + PAM3C + C-178 1 uM): 561
- NFkB (NF-kappa-B (NFkB); peptide 400 nM + PAM3C + NFkBi 50 ug/ml): 458**
- NFkB (NF-kappa-B (NFkB); peptide 400 nM + PAM3C + SB2021 10 uM): 296**
- NFkB (NF-kappa-B (NFkB); peptide 400 nM + PAM3C + cytB 1 uM): 576
- NFkB (NF-kappa-B (NFkB); peptide 400 nM + PAM3C, control = 100): 575
- NFkB (NF-kappa-B (NFkB); peptide 400 nM, no inducer, control = 100): 94**
- fluorescence, FITC-PI(4,5)P2 ([3]; Ferric iron, cold PI(3)P1 2 ug/well): 78.5 ± 5.8
- fluorescence, FITC-PI(4,5)P2 ([3]; Ferric iron, cold PI(3,5)P2 2 ug/well): 100.0 ± 3.2
- fluorescence, FITC-PI(4,5)P2 ([3]; Ferric iron, no cold PPI): 80.1 ± 1.8
- fluorescence, FITC-PI(4,5)P2 ([3]; No metal, no cold PPI, IM3 100 ng/well): 0.0 ± 0.2
- fluorescence, FITC-PI(4,5)P2 ([3]; Zinc, no cold PPI): 2.2 ± 0.3

From patent publication US12102685B2, “Immodulator peptides covalently modified with small molecules” (priority 2020, dated 2024)
